Among the data in PubChem BioAssay (NCI) are TGI and GI50 values, retold here.

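Protocol summary: plate cells (96-well), add compound at 5 concentrations, incubate 48 h, interpolate endpoints linearly. The concentration for 50% growth inhibition is given as GI50. TGI: concentration producing complete growth inhibition.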

A word on the TGI: it is the concentration at which net growth stops. Read a low TGI as more potent growth arrest. Broadly, the GI50 is the concentration at which growth is held to half of that of the control.

Test systems include A549 NSCLC; HCT-15 colon; KM12 colon; MDA-MB-435; SF-268 CNS; SF-295 CNS; SF-539 CNS; SK-MEL-28 melanoma; SK-MEL-5 melanoma; TK-10 renal.
What all share (assay): DTP human tumour cell line panel, 48 h

In the case of `NC(Cc1ccccc1)c1nccs1` (stereo not given), the concentration for total growth inhibition (TGI) in the experiment with A549 NSCLC, in the experiment with HCT-15 colon, with KM12 colon, with MDA-MB-435, with SF-268 CNS and with SF-295 CNS was over 100 µM each time. The concentration for total growth inhibition (TGI) in the experiment on SF-539 CNS, in the experiment on SK-MEL-28 melanoma, in the experiment with SK-MEL-5 melanoma and with TK-10 renal was over 100 µM each time.
Consider `C/C=C(\C)C(=O)OC1/C=C(\C)CC/C=C(\C)CC2OC(=O)C(C)(OC(C)=O)C12` (stereo not given), for which the TGI with A549 NSCLC, in the experiment on HCT-15 colon, with KM12 colon, in the experiment with MDA-MB-435, in the experiment with SF-268 CNS and with SF-295 CNS was over 100 µM in each case. In addition, the TGI in the experiment on SF-539 CNS, in the experiment with SK-MEL-28 melanoma, with SK-MEL-5 melanoma and with TK-10 renal was over 100 µM each time.
For the compound `CC1=NOC(=O)/C1=C/c1ccc2c(c1)OCO2`, the concentration for total growth inhibition (TGI) with A549 NSCLC is over 100 µM; in the experiment on HCT-15 colon, 45.3 µM; in the experiment on KM12 colon it was 36.6 µM; in the experiment on MDA-MB-435, 56.6 µM; in the experiment with SF-268 CNS, over 100 µM; in the experiment with SF-295 CNS, 69.6 µM. Further, the TGI is 64.9 µM in the experiment on SF-539 CNS, over 100 µM in the experiment on SK-MEL-28 melanoma, over 100 µM with SK-MEL-5 melanoma and over 100 µM in the experiment with TK-10 renal.
With `Cc1ccc(C(=O)NC2CC2)cc1-c1ccc2[nH]ncc2c1`, the GI50 with A549 NSCLC, in the experiment on HCT-15 colon, in the experiment with KM12 colon, in the experiment with MDA-MB-435, with SF-268 CNS and in the experiment on SF-295 CNS was over 25 µM throughout. The GI50 with SF-539 CNS, in the experiment with SK-MEL-28 melanoma, with SK-MEL-5 melanoma and with TK-10 renal was over 25 µM each time. Moreover, the TGI in the experiment with A549 NSCLC, in the experiment with HCT-15 colon, with KM12 colon, in the experiment with MDA-MB-435, in the experiment with SF-268 CNS and with SF-295 CNS was over 25 µM each time. Moreover, the TGI in the experiment with SF-539 CNS, in the experiment on SK-MEL-28 melanoma, with SK-MEL-5 melanoma and with TK-10 renal was over 25 µM each time.
For the compound `C=C1CCC2C3(C)COC(c4ccccc4Cl)OC3CCC2(C)C1/C=C/C1=CCOC1=O` (stereo not given), the GI50 is 4.97 µM in the experiment with A549 NSCLC; 6.6 µM in the experiment on HCT-15 colon; 6.71 µM in the experiment on KM12 colon; 9.89 µM in the experiment with MDA-MB-435; over 100 µM in the experiment on SF-268 CNS; 3.48 µM in the experiment with SF-295 CNS. Also, the GI50 was 24 µM in the experiment with SF-539 CNS, over 100 µM with SK-MEL-28 melanoma, 3.78 µM in the experiment on SK-MEL-5 melanoma and 19 µM with TK-10 renal. Further, the TGI in the experiment with A549 NSCLC, in the experiment with HCT-15 colon, with KM12 colon, with MDA-MB-435, with SF-268 CNS and in the experiment on SF-295 CNS was over 100 µM in each case. In addition, the TGI in the experiment on SF-539 CNS was over 100 µM; with SK-MEL-28 melanoma, over 100 µM; in the experiment with SK-MEL-5 melanoma, 21 µM; in the experiment on TK-10 renal, over 100 µM.
Take `CC1=C(C)SC(=C2Sc3c(n(C)c(=O)n(C)c3=O)S2)S1`: the TGI in the experiment with A549 NSCLC, with HCT-15 colon, with KM12 colon, in the experiment with MDA-MB-435, with SF-268 CNS and in the experiment on SF-295 CNS was over 100 µM each time. The TGI in the experiment with SF-539 CNS is 26.8 µM; in the experiment with SK-MEL-28 melanoma it was over 100 µM; in the experiment on SK-MEL-5 melanoma it was over 100 µM; in the experiment on TK-10 renal it was 74.7 µM.
Regarding `COc1cc(C(=O)c2cocc2C(=O)c2ccc3c(c2)OCO3)cc(OC)c1OC`, the TGI in the experiment with A549 NSCLC was over 68 µM; in the experiment on HCT-15 colon, 35.3 µM; in the experiment on KM12 colon, 59.1 µM; in the experiment with MDA-MB-435 it was 0.955 µM; in the experiment with SF-268 CNS, 45 µM; in the experiment on SF-295 CNS, 2.48 µM. Also, the TGI with SF-539 CNS is 1.45 µM; in the experiment with SK-MEL-28 melanoma, over 49.5 µM; in the experiment on SK-MEL-5 melanoma it was 25.5 µM; in the experiment on TK-10 renal, 47.2 µM.
Consider `NC(=O)NN=C1Cc2ccccc2C1`, for which the TGI in the experiment on A549 NSCLC, in the experiment on HCT-15 colon, in the experiment on KM12 colon, with MDA-MB-435, in the experiment on SF-268 CNS and with SF-295 CNS was over 100 µM throughout. The TGI in the experiment on SF-539 CNS, in the experiment with SK-MEL-28 melanoma, in the experiment on SK-MEL-5 melanoma and in the experiment on TK-10 renal was over 100 µM in each case.
`CC1(C)CCC[C@]2(C)c3ccccc3C(=O)CC12` (stereo not given in full): the GI50 in the experiment with A549 NSCLC is 54.1 µM; in the experiment on HCT-15 colon it was 24.9 µM; in the experiment on KM12 colon, 23.8 µM; with MDA-MB-435, 22.9 µM; with SF-268 CNS it was 34.3 µM; in the experiment with SF-295 CNS, 40.7 µM. Further, the GI50 with SF-539 CNS was 27.1 µM; in the experiment on SK-MEL-28 melanoma, 64.6 µM; in the experiment with SK-MEL-5 melanoma, 18 µM; in the experiment on TK-10 renal, 69 µM. Besides, the TGI in the experiment on A549 NSCLC, with HCT-15 colon, in the experiment with KM12 colon, with MDA-MB-435, in the experiment on SF-268 CNS and in the experiment on SF-295 CNS was over 100 µM each time. In addition, the TGI in the experiment with SF-539 CNS is 75.7 µM; in the experiment with SK-MEL-28 melanoma it was over 100 µM; with SK-MEL-5 melanoma, 46.4 µM; in the experiment with TK-10 renal, over 100 µM.
For `COc1c(N2CCN(CN3C(=O)C(=Nc4ccc(S(=O)(=O)Nc5ncccn5)cc4)c4cc(Cl)ccc43)C(C)C2)c(F)cc2c(=O)c(C(=O)O)cn(C3CC3)c12` (stereo not given), the GI50 in the experiment with A549 NSCLC was 18.5 µM; with HCT-15 colon, 45.4 µM; in the experiment with KM12 colon, 9.61 µM; with MDA-MB-435, 10.3 µM; in the experiment on SF-268 CNS, 12.1 µM; in the experiment with SF-295 CNS, 24.5 µM. Further, the GI50 is 15.4 µM in the experiment on SF-539 CNS, 30.4 µM in the experiment on SK-MEL-28 melanoma, 7.99 µM in the experiment with SK-MEL-5 melanoma and 13.3 µM in the experiment on TK-10 renal. Also, the TGI with A549 NSCLC was over 50 µM; with HCT-15 colon, over 50 µM; in the experiment with KM12 colon, 26.8 µM; with MDA-MB-435 it was 21.1 µM; with SF-268 CNS it was over 50 µM; with SF-295 CNS, over 50 µM. Besides, the TGI in the experiment on SF-539 CNS was 40.9 µM; in the experiment on SK-MEL-28 melanoma it was over 50 µM; with SK-MEL-5 melanoma it was 15.8 µM; with TK-10 renal, 35.2 µM.
